{"source": "patent US20200345725A1", "about": "“Methods and Compositions for Treating Cancer” (Omeros Corporation, priority 2019, published 2020)", "key": {"human PBMCs": {"tested_on": "human PBMCs", "assay": "CTLA-4 expression on naive and memory T cells in human PBMC", "type": "cell-based", "settings": "0.19-6.0 μM; one day post-stimulation; vs vehicle", "protocol": "PBMC cells from a single donor were cultured overnight with additional irradiated antigen-presenting cells (APC) in the presence of various concentrations of GPR174 inhibitory compound 10 (0.019 to 6 μM) or equivalent concentrations of vehicle (DMSO). Anti-CD3 (OKT3) was then added to the cultures for an additional 24 hours. The cells were analyzed by flow cytometry for expression of FOXP3, CTLA-4, CD4, CD3, CD45RA and CD25."}, "purified human T cells": {"tested_on": "purified human T cells", "assay": "Cytokines of purified human T cells activated with K562 cells, with or without PS liposomes, tumor exosomes, GPR174 inhibitor", "type": "cell-based", "settings": "for IFN-γ FC (fold change), Compound 10 vs Vehicle / IL-2 FC (fold change), Compound 10 vs Vehicle / TNF FC (fold change), Compound 10 vs Vehicle: stimulated human T cells, compound 10, 0.5 μM", "protocol": "Purified human T cells (Astarte Biologies, Inc) were activated in the presence of K562 cells (as artificial antigen presenting cells) presenting anti-CD3 and CD80.Fc via Fc-receptor binding, in 96-well U-bottom plates containing X-vivo-15 media in the following conditions:\nAnti-CD3 (clone UCHT1, 0.5 μg/mL)\nCD80.Fc fusion protein (R&D Systems, 2 μg/mL)\nExosomes from human breast cancer tumor cell line MDA-MB-231 (12 μg/mL) (EXOP-105A-1 from System Biosciences, LLC)\nGPR174 inhibitor (compound 10, 0.5 μM or 3 μM)\nCells were cultured for 24 hours and supernatants were evaluated for cytokine concentrations (Legendplex, Biolegend)."}, "[1]": {"settings": "in the presence of Exosomes (human breast cancer tumor-derived)"}, "[2]": {"settings": "in the presence of PS Liposomes"}}, "data": [{"compound": "CC1CCN(c2cc(N3CCN(S(=O)(=O)c4ccccc4)CC3)c([N+](=O)[O-])cc2F)CC1", "note": "[compound 10]", "values": [{"measurement": "CTLA4 expression in memory Treg cells (CD45RA−FOXP3+)", "setting": "human PBMCs", "result": "reduced"}, {"measurement": "CTLA4 expression in memory non-Treg cells (CD45RA−FOXP3−)", "setting": "human PBMCs", "result": "reduced"}, {"measurement": "CTLA4 expression in naive Treg cells (CD45RA+FOXP3+)", "setting": "human PBMCs", "result": "reduced"}, {"measurement": "CTLA4 expression in naive non-Treg cells (CD45RA+FOXP3−)", "setting": "human PBMCs", "result": "reduced"}, {"measurement": "IL-2 production, fold change by compound 10 in the absence of PS liposomes (FIG. 65)", "setting": "purified human T cells; compound 10 3 μM", "result": 1.3, "unit": "fold"}, {"measurement": "IL-2 production, fold change by compound 10 in the presence of PS liposomes (FIG. 65)", "setting": "purified human T cells; compound 10 3 μM, PS liposomes 1 μM", "result": 2.4, "unit": "fold"}, {"measurement": "IFN-γ FC (fold change), Compound 10 vs Vehicle", "setting": "purified human T cells; [1]", "result": 1.4}, {"measurement": "IL-2 FC (fold change), Compound 10 vs Vehicle", "setting": "purified human T cells; [1]", "result": 1.7}, {"measurement": "TNF FC (fold change), Compound 10 vs Vehicle", "setting": "purified human T cells; [1]", "result": 1.7}, {"measurement": "IFN-γ FC (fold change), Compound 10 vs Vehicle", "setting": "purified human T cells; in the presence of Media", "result": 1.1}, {"measurement": "IL-2 FC (fold change), Compound 10 vs Vehicle", "setting": "purified human T cells; in the presence of Media", "result": 1.2}, {"measurement": "TNF FC (fold change), Compound 10 vs Vehicle", "setting": "purified human T cells; in the presence of Media", "result": 1.4}, {"measurement": "IFN-γ FC (fold change), Compound 10 vs Vehicle", "setting": "purified human T cells; [2]", "result": 1.3}, {"measurement": "IL-2 FC (fold change), Compound 10 vs Vehicle", "setting": "purified human T cells; [2]", "result": 1.4}, {"measurement": "TNF FC (fold change), Compound 10 vs Vehicle", "setting": "purified human T cells; [2]", "result": 1.7}]}]}
